Measurements as given in publication PMC12305494, “Discovery of PXR Antagonist MI891 and PXR Degrader MI1013 and Their Roles in Hepatic Gene Regulation” (Journal of Medicinal Chemistry, 2025).
Numbering of substitutions follows the chain as printed.

Legend:
wild-type PXR LBD = biological target: T1, wild-type PXR LBD (Homo sapiens, UniProt O75469); assay: Mammalian two-hybrid assay, wt-PXR LBD with SRC-1-VP16 in HepG2; assay type: cell-based; settings: MI891 at 10 μM
T1 construct: HepG2 cells were cotransfected with a GAL4-hPXR LBD construct and pSCR1-VP16 construct; expressed in transfected cells; host or cells: HepG2
T1 sequence (O75469 146-433 limits assumed): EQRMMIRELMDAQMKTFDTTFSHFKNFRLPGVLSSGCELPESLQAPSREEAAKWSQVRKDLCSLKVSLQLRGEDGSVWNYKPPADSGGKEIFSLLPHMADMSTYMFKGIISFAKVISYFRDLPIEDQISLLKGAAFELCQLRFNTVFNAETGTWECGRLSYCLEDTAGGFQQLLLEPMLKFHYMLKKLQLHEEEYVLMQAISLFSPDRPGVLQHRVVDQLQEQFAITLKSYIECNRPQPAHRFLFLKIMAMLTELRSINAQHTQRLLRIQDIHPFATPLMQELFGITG
Excerpt: (§1) Additionally, the GAL4-PXR-LBD triple mutants (S247W/C284W/S208W) construct and wild-type GAL4-wtPXR vector were used for PXR LBD mutant functional two-hybrid assay as we described before. In the mammalian two-hybrid assay, HepG2 cells were cotransfected with a GAL4-hPXR LBD construct and pSCR1-VP16 construct. Renilla luciferase vector was used for the normalization of firefly luciferase activity to Renilla luciferase activity.

[1] = biological target: T2, triple mutant (S208W/S247W/C284W) PXR LBD (Homo sapiens, UniProt O75469, C284W/S208W/S247W); assay: Mammalian two-hybrid assay, obstructed triple mutant PXR LBD with SRC-1-VP16 in HepG2; assay type: cell-based
T2 construct: the GAL4-PXR-LBD triple mutants (S247W/C284W/S208W) construct; expressed in transfected cells; host or cells: HepG2
T2 sequence (O75469 146-433 S208W/S247W/C284W limits assumed): T1 sequence (O75469 146-433 limits assumed) with S63W, S102W, C139W
Excerpt: as §1

HepG2 cells = assay: CellTiter-Glo cytotoxicity assay, HepG2; assay type: cell-based, human; settings: 24 h
Method: (§2) For the cytotoxicity assays involving HepG2, COS-1, and HK-2 cell lines, serial dilutions of MI891 or MI1013 were added to white 96-well tissue culture-treated plates containing these cell lines. After incubating the plates for 24 h at 37 °C, cytotoxicity was assessed using the CellTiter-Glo luminescent cell viability assay (Promega). The luminescence signal was measured with a Synergy2 plate reader (BioTek, Winooski, Vermont, USA) and presented as a relative change compared to the vehicle (DMSO, 0.1%) control, which was set at 100%.

COS-1 cells = assay: CellTiter-Glo cytotoxicity assay, COS-1; assay type: cell-based, monkey; settings: 24 h
Method: as §2

HK-2 cells = assay: CellTiter-Glo cytotoxicity assay, HK-2; assay type: cell-based, human; settings: 24 h
Method: as §2

ERα/β = ERα/β agonist reporter assay; assay type: cell-based; settings: 10 µM MI891
Method: For the farnesoid X receptor (FXR) luciferase gene reporter assay, the full-length expression vector was paired with pFXRE-luc luciferase construct. The p1A1-luc construct was used in the aryl hydrocarbon receptor (AhR) assays with pRL-TK for normalization. Gal4-LXR-α/β, and Gal4-PPAR-γ constructs were used with the pGAL4 UAS-luc construct. For the VDR assay, expression vector pSG5-hVDR together with pVDRE-luc constructs was used. Firefly and Renilla luciferase activities were analyzed using a Dual reporter assay (Promega). For the nuclear receptor assays, prototype ligands were used at the following concentrations: Calcitriol for VDR (100 nM), GW3965 for LXRα and LXRβ (10 μM), 6-OCA for FXR (1 μM), fenofibrate for PPARα (10 μM), estradiol for ERα and β (10 μM), rosiglitazone for PPARγ (10 μM), 3-MC for AhR (5 μM), and TCPOBOP for mCAR (10 μM). Detailed descriptions and protocols are detailed in our recent publication. , […]
hydrophobic interactions. (F) Superimposed diagram of PXR bound with agonist (SJPYT-328) and antagonists (MI891 and SJPYT-331) to differentiate the agonist and antagonist interactions with helix 12 (H12). The interaction of the agonist with PXR residue (L428) is circled. (G) Extended nuclear receptor selectivity profile. […]

HepaRG cells = assay: RT-qPCR gene expression in differentiated HepaRG cells; assay type: cell-based, human; settings: 48 h
Method: HepaRG cells (Sigma-Aldrich/Merck) were cultivated and differentiated on 12-well plates. Seeded at 26,600 cells/cm^2, they were maintained in William’s medium with supplements. After 14 days, differentiation into hepatocyte-like cells was induced using 1.5% DMSO for another 14 days.
RT-qPCR was utilized to investigate gene expression in HepaRG and PHH. Total RNA was extracted from these cells using the phenol–chloroform method. The concentration of the isolated RNA was then measured using a Nanodrop 1000 spectro-photometer (Thermo Fisher Scientific).
Following RNA isolation, reverse transcription was performed to convert RNA into complementary DNA (cDNA). This step was carried out using the High-capacity cDNA reverse transcription kit (Cat. No. 4374966, ThermoFisher Scientific). The resulting cDNA served as the template for subsequent qPCR reactions.
The qPCR reactions were conducted on the QuantStudio 6 Flex Real-Time PCR System (ThermoFisher Scientific, Waltham, Mas-sachusetts). For these reactions, TaqMan Universal master mix II (Cat. No. 4440047, ThermoFisher Scientific) and TaqMan assays (FAM) utilized in this study are detailed in the Supporting Information. To quantify gene expression, the cycle threshold (Ct) values of the target genes were normalized to the Ct values of reference genes HPRT1 or GAPDH (HepaRG) or TBP (PHH). The normalized values were then expressed as fold changes (2−ΔΔCt) relative to the DMSO control at the specified time points, with the control set as 1.

Compound | effect on wt-PXR-LBD/SRC1-VP16 two-hybrid (wild-type PXR LBD) | activation of obstructed mutated PXR LBD two-hybrid [1] | effect on viability (HepG2 cells; HepG2, up to 30 μM) | effect on viability (COS-1 cells; COS-1, up to 30 μM) | effect on viability (HK-2 cells; HK-2, up to 30 μM) | agonistic effect on ERα/β (ERα/β) | SULT1E1, SULT1B1, CYP7B1 and NR0B2 (SHP) gene expression (HepaRG cells; MI891 5 μM, MI1013 2 μM) | CYP2B6 mRNA expression (HepaRG cells; at 1 μM, no significant activation at higher concentrations) | CYP3A4 mRNA expression (HepaRG cells; alone or with rifampicin (5 μM), concentration-dependent) | cytotoxicity/viability (HepG2 cells; HepG2, up to a concentration of 100 μM) | cytotoxicity/viability (COS-1 cells; COS-1, up to a concentration of 100 μM) | cytotoxicity/viability (HK-2 cells; HK-2, up to a concentration of 100 μM) | CYP3A4 gene expression (HepaRG cells; MI891 5 μM, SPA70 5 μM, MI1013 2 μM)
NC(=O)c1cc(Cn2cc(-c3c(-c4ccc(Cl)cc4)nc4c(F)cc(F)cn34)nn2)ccc1Cl [Compound 11, 2-Chloro-5-((4-(2-(4-chlorophenyl)-6,8-difluoroimidazo[1,2-a]pyridin-3-yl)-1H-1,2,3-triazol-1-yl)methyl)-benzamide] | disrupted the wt-PXR-LBD/SRC1-VP16 interaction | Neither MI891 nor SPA70 activated the obstructed mutated PXR LBD | no effects on viability | no effects on viability | no effects on viability | no agonistic effects | significantly downregulated | slightly induced | suppressed both rifampicin-induced and basal (constitutive) CYP3A4 mRNA expression | – | – | – | –
N-(4-((1-(2,5-dimethoxyphenyl)-5-methyl-1H-1,2,3-triazol-4-yl)sulfonyl)phenyl)-3-(2-(2-(2-(4-(((2-(2,6-dioxopiperidin-3-yl)-1,3-dioxoisoindolin-4-yl)amino)methyl)-1H-1,2,3-triazol-1-yl)ethoxy)ethoxy)ethoxy)propenamide [Compound 36] | does not activate | does not activate | – | – | – | – | significantly downregulated | – | – | nontoxic | nontoxic | nontoxic | downregulated
